In test [1] the test system is Klebsiella. In words: Test Example 2: preventing formation of bacterial CGC in vitro (K-B method). Format: cell-based. The method, then:
(§1) E. coli (No. 33310, purchased from Chengdu Institute of Biological Products, the Ministry of Public Health) was used in the tests. Grid design was performed by using antibiotic with different concentrations and N-acetyl-D-glucosamine having an amount of from 10 mg to 300 mg. Streak plates were conducted separately, and K-B method was employed for drugs. Colonies at marginal part of drug inhibition zone were picked and were observed under microscope. If cell length was more than 50 μm and cell number was more than 5 in each visual field, it was deemed as CGC positive and was marked with “+”; while if cell length was not greater than 50 μm and cell number was within the range from 0 to 4 in each visual field, it was deemed as CGC negative and was marked with “−”. At this time, the ratio of two substances was called “effective ratio”.
(§2) Effects tests of compound preparation comprising N-acetyl-D-glucosamine and antibiotics for preventing the formation of bacterial CGC in vitro.
(§3) The tests were carried out in vitro, wherein gram-negative amphimicrodes, gram-negative anaerobes and gram-positive aerobes were separately coated on streak plates, test drugs and control drugs were separately dissolved with same volume of sterile water for injection, 10 μl of each drug was used for preparing drug-sensitive paper, K-B method was employed in the tests of drugs, and the inhibition situations of CGC formation were observed.

The subject of test [2] is Listeria. Described as above. Format: cell-based. The method, then:
as §1, §2, §3

Test [3] deals with Citro Bacter. The description is as above. Format: cell-based. Here is the method:
as §1, §2, §3

For test [4], the system named is Bacillus proteus. The description is as above. Format: cell-based. Here is the method: as §1, §2, §3
In test [5] the test system is Diphtheroid bacillus. Described as above. In kind it is cell-based. The method, then:
as §1, §2, §3

Test [6] relates to Bacillus cereus. The test is described as above. Format: cell-based. Here is the method: as §1, §2, §3
In test [7] the test system is Bacteroides fragilis. Described as above. Format: cell-based. Here is the method: as §1, §2, §3
Test [8] relates to Nucleic Acid Bacter. The test is described as above. Format: cell-based. The method, then:
as §1, §2, §3

The test system of test [9] is E. coli. The test is described as above. Format: cell-based. The method, then: as §1, §2, §3
Test [10] has as its system irritable bowel syndrome (IBS) caused by bacterial CGC. Briefly: Test Example 5: preventing irritable bowel syndrome (IBS) caused by bacterial CGC. Format: in vivo, rats. From the text: On this basis, the rats were subjected to stimulations such as electric stimulation, intragastric administration with fructus zanthoxyli water, cold, constraint etc. in order to induce IBS, and the incidence rates of IBS of two groups were observed.

For test [11], the system named is rats infected and not infected by Bacillus typhi murium. Format: in vivo, Wistar rats. The conditions noted are these: rats infected or not by Bacillus typhi murium, consecutive week, 15 rats per group.
[12] abbreviates: compound preparation 150 mg N-acetyl-D-glucosamine + 150 mg ampicillin, control ampicillin.
The mark [13] stands for this setting: first of three values given respectively: electric stimulation.
[14] abbreviates: second of three values given respectively: intragastric administration with fructus zanthoxyli water.
Setting [15] is: third of three values given respectively: cold, constraint etc.
[16] abbreviates: compound injection 100 mg N-acetyl-D-glucosamine + 300 mg kanamycin, control kanamycin same dose.

Like-named read-outs stand apart in the source and are kept apart here.

With `CC1(C)S[C@@H]2[C@H](NC(=O)[C@H](N)c3ccccc3)C(=O)N2[C@H]1C(=O)O` [Ampicillin, ampicillin], the CGC formation result was “+ (If cell length was more than 50 μm and cell number was more than 5 in each visual field, it was deemed as CGC positive and was marked with “+”)” in [1] (setting [12]); “+ (If cell length was more than 50 μm and cell number was more than 5 in each visual field, it was deemed as CGC positive and was marked with “+”)” in [2] (setting [12]); “+ (If cell length was more than 50 μm and cell number was more than 5 in each visual field, it was deemed as CGC positive and was marked with “+”)” in test [3] (setting [12]); “+ (If cell length was more than 50 μm and cell number was more than 5 in each visual field, it was deemed as CGC positive and was marked with “+”)” in test [4] (setting [12]); “+ (If cell length was more than 50 μm and cell number was more than 5 in each visual field, it was deemed as CGC positive and was marked with “+”)” in [5] (setting [12]); “+ (If cell length was more than 50 μm and cell number was more than 5 in each visual field, it was deemed as CGC positive and was marked with “+”)” in test [6] (setting [12]). Besides, the CGC formation entry in [7] (setting [12]) is “+ (If cell length was more than 50 μm and cell number was more than 5 in each visual field, it was deemed as CGC positive and was marked with “+”)”; in [8] (setting [12]), “+ (If cell length was more than 50 μm and cell number was more than 5 in each visual field, it was deemed as CGC positive and was marked with “+”)”; in [9] (setting [12]), “+ (If cell length was more than 50 μm and cell number was more than 5 in each visual field, it was deemed as CGC positive and was marked with “+”)”. The “incidence rate of IBS” value in [10] (setting [13]), in test [10] (setting [14]) and in [10] (setting [15]) was 33% throughout. Also, in test [10] (rats, effective dosage for consecutive 10 days, 30 rats per group), the “CGCs in the rat stools after one week of drug withdrawal” value is on record as “still present”. In test [10] (rats, effective dosage for consecutive 10 days, stools observed during administration and within 1 week after drug withdrawal, 30 rats per group), the “CGCs in the stools of the rats” value is on record as “a large amount of CGCs appeared”. Also, the “positive rates of stool CGC and intestinal mucosa CGC” value in test [11] (N-acetyl-D-glucosamine (100 mg)+ampicillin (200 mg) vs only ampicillin) came out at 100%.

As to `NC[C@H]1O[C@H](O[C@H]2[C@H](O)[C@@H](O[C@H]3O[C@H](CO)[C@@H](O)[C@H](N)[C@H]3O)[C@H](N)C[C@@H]2N)[C@H](O)[C@@H](O)[C@@H]1O` [Kanamycin, kanamycin], the CGC formation entry in test [1] (setting [16]) is “+ (If cell length was more than 50 μm and cell number was more than 5 in each visual field, it was deemed as CGC positive and was marked with “+”)”; in test [2] (setting [16]), “+ (If cell length was more than 50 μm and cell number was more than 5 in each visual field, it was deemed as CGC positive and was marked with “+”)”; in test [3] (setting [16]) it was “+ (If cell length was more than 50 μm and cell number was more than 5 in each visual field, it was deemed as CGC positive and was marked with “+”)”; in [4] (setting [16]), “+ (If cell length was more than 50 μm and cell number was more than 5 in each visual field, it was deemed as CGC positive and was marked with “+”)”; in [5] (setting [16]), “+ (If cell length was more than 50 μm and cell number was more than 5 in each visual field, it was deemed as CGC positive and was marked with “+”)”; in [6] (setting [16]) it was “+ (If cell length was more than 50 μm and cell number was more than 5 in each visual field, it was deemed as CGC positive and was marked with “+”)”. Moreover, the CGC formation entry in test [7] (setting [16]) is “+ (If cell length was more than 50 μm and cell number was more than 5 in each visual field, it was deemed as CGC positive and was marked with “+”)”; in [8] (setting [16]) it was “+ (If cell length was more than 50 μm and cell number was more than 5 in each visual field, it was deemed as CGC positive and was marked with “+”)”; in [9] (setting [16]) it was “+ (If cell length was more than 50 μm and cell number was more than 5 in each visual field, it was deemed as CGC positive and was marked with “+”)”. The “incidence rate of IBS” value in test [10] (setting [13]), in test [10] (setting [14]) and in test [10] (setting [15]) was 33% each time. Also, the “positive rates of stool CGC and intestinal mucosa CGC” value in [11] (N-acetyl-D-glucosamine (100 mg)+kanamycin (200 mg) vs only kanamycin) is listed as 100%.

The values above are taken from patent US20070191291A1, “Compound antibacterial drugs comprising n-acetyl-d-glucosamine” (priority 2003, published 2007).
